Experiment [1] addresses His-tagged human recombinant kinase full-length Akt2 activated by PDK1 (Homo sapiens (Human), UniProt P31751). Put plainly: Akt2 kinase assay (Akt2 TR-FRET assay, Biological Assay 2.0). The conditions noted are these: 10 μM ATP, 1 μM biotinylated peptide substrate, 60 min at 22° C. Type of experiment: biochemical. The procedure, abridged:
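Compound was pre-incubated with enzyme (~0.2 ng/µl final) for 15 min at 22 °C in Tris pH 7.5, 5 mM MgCl2, then reacted 60 min with 10 µM ATP and 1 µM biotinylated peptide. Phosphopeptide was detected by TR-FRET (665/622 nm ratio). Data were normalised to no-inhibitor (0%) and no-enzyme (100%) controls.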
(In TR-FRET formats the signal depends on donor and acceptor labels being close together.)

Experiment [2] deals with His-tagged human recombinant kinase full-length Akt1 (Homo sapiens (Human), UniProt P31749). The experiment in a line: Akt1 kinase assay (Akt1 TR-FRET assay, Biological Assay 1.0). The conditions noted are these: 10 μM ATP, 1 μM biotinylated peptide substrate, 60 min at 22° C. Type of experiment: biochemical. Put shortly: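 Insect-cell-expressed full-length His-Akt1 (~0.05 ng/μl) preincubated 15 min with compound, then reacted 60 min at 22 °C with 10 μM ATP and 1 μM biotinylated peptide (final), pH 7.5. Phosphopeptide detected by HTRF (665/620 nm ratio). Data normalised to no-inhibitor and no-enzyme controls.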

pIC50: −log10 of the molar value.

His-tagged human recombinant kinase full-length Akt1, sequence (P31749 whole entry): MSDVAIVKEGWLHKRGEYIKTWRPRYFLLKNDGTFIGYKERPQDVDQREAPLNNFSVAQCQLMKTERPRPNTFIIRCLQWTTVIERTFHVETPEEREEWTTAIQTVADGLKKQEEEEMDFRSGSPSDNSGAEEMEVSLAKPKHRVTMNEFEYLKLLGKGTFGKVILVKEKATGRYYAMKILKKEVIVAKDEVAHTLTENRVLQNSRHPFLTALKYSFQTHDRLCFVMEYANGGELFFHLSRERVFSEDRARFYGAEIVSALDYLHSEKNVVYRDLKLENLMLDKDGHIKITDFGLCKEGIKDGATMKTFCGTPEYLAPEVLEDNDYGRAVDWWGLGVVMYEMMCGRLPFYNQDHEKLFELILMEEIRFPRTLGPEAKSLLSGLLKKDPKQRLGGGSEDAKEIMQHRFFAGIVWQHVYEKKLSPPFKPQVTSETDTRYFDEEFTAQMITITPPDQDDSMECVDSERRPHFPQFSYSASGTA
His-tagged human recombinant kinase full-length Akt2 activated by PDK1, sequence (P31751 whole entry): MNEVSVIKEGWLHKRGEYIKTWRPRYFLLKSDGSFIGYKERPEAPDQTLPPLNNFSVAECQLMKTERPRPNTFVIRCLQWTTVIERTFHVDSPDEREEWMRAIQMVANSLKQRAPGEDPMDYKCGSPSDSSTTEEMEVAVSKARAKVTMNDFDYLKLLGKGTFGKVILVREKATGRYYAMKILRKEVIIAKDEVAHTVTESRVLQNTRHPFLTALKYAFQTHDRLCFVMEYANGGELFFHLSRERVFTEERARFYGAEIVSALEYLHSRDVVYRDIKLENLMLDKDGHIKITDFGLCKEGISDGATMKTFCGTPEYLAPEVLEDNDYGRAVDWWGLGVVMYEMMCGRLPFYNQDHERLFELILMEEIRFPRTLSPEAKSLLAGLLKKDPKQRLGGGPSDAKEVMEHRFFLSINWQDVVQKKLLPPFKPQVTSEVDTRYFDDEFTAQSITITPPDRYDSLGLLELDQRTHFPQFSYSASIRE

What is called pIC50 is −log10 of the IC50, conventionally taken in molar units. Regarding `Cc1nc2nc(-c3ccc(CN4CCC(c5cnc6ccccc6n5)CC4)cc3)c(-c3ccccc3)cn2n1` [Example 24.1, 2-{1-[4-(2-methyl-6-phenyl-[1,2,4]triazolo[1,5-a]pyrimidin-5-yl)-benzyl]-piperidin-4-yl}-quinoxaline], the negative logarithm of the IC50 (pIC50) in experiment [1] was 5.01; in experiment [2], 5.36.
On to `Cc1nc2nc(-c3ccc(CN4CCC(c5nc6ccc(C#N)cc6[nH]5)CC4)cc3)c(-c3ccccc3)cn2n1` [Example 20.0, 2-{1-[4-(2-methyl-6-phenyl-[1,2,4]triazolo[1,5-a]pyrimidin-5-yl)benzyl]-piperidin-4-yl}-3H-benzimidazole-5-carbonitrile], for which the pIC50 is 6.00 in experiment [1] and 6.28 in experiment [2].
With `COc1nn2cc(-c3c(F)cccc3F)c(-c3ccc(CN4CCC(c5n[nH]c(-c6cccc(C)n6)n5)CC4)cc3)nc2c1CO` [Example 63.2], the results for the pIC50 in experiment [1] and in experiment [2] were 6.97 and 7.74, respectively.
Turning to `CNc1c(-c2ccccc2)c(-c2ccc(CN3CC(c4n[nH]c(-c5cccc(C)n5)n4)C3)cc2)nc2nc(C)cn12` [Example 61.0, methyl-(2-methyl-7-{4-{3-[5-(6-methylpyridine-2-yl)-1H-[1,2,4]triazole-3-yl)-azetidine-1-ylmethyl]-phenyl}-6-phenyl-imidazo[1,2-a]pyrimidin-5-yl)-amine], the pIC50 was 7.72 in experiment [1] and 7.96 in experiment [2].
Consider `Fc1ccc2nc(C3CCN(Cc4ccc(-c5nc6ccnn6cc5-c5ccccc5)cc4)CC3)[nH]c2c1` [Example 18.0, 5-{4-[4-(6-fluoro-1H-benzimidazol-2-yl)-piperidin-1-ylmethyl]-phenyl}-6-phenyl-pyrazolo[1,5-a]pyrimidine], for which the pIC50 is 5.96 in experiment [1] and 7.38 in experiment [2].
Turning to `COC(=O)c1cnn2cc(-c3c(F)cccc3F)c(-c3ccc(CN4CCC(c5n[nH]c(-c6cccc(C)n6)n5)CC4)cc3)nc12` [Example 48.0, 6-(2,6-difluorophenyl)-5-(4-{4-[5-(6-methylpyridine-2-yl)-1H-[1,2,4]triazole-3-yl]-piperidine-1-ylmethyl}-phenyl)-pyrazolo[1,5-a]pyrimidine-3-carboxylic acid methyl ester], the pIC50 in experiment [1] was 7.09; in experiment [2] it was 8.15.
`Cc1nc2nc(-c3ccc(CN4CCC(c5n[nH]c(-c6ccccn6)n5)CC4)cc3)c(-c3cccc(F)c3)cn2n1` [Example 49.1, 6-(3-fluorophenyl)-2-methyl-5-{4-[4-(5-pyridine-2-yl)-1H-[1,2,4]triazole-3-yl)-piperidine-1-ylmethyl]-phenyl]-[1,2,4]triazolo[1,5-a]pyrimidine formiate]: the figures for the pIC50 in experiment [1] and in experiment [2] were 6.89 and 7.55, respectively.
The corresponding values for `Cc1nc2nc(-c3ccc(CN4CCC(c5n[nH]c(-c6ccccn6)n5)C4)cc3)c(-c3ccccc3)cn2n1` (racemic) [Example 24.0, (±)-2-methyl-6-phenyl-5-{4-[3-(5-pyridin-2-yl-1H-[1,2,4]triazol-3-yl)-pyrrolidin-1-ylmethyl]-phenyl}-[1,2,4]triazolo[1,5-a]pyrimidine] are 6.36 and 7.36.
Take `Cc1cccc(-c2nc(C3CCN(Cc4ccc(-c5nc6nc(C)nn6cc5-c5cccc(F)c5)cc4)CC3)n[nH]2)n1` [Example 49.0, 6-(3-fluorophenyl)-2-methyl-5-(4-{4-[5-(6-methylpyridine-2-yl)-1H-[1,2,4]triazole-3-yl]-piperidine-1-ylmethyl}-phenyl)-[1,2,4]triazolo[1,5-a]pyrimidine]: the values for the pIC50 in experiment [1] and in experiment [2] were 7.43 and 7.89, respectively.
For the molecule `COC(=O)c1cn2cc(-c3ccccc3)c(-c3ccc(CN4CC(c5n[nH]c(-c6cccc(C)n6)n5)C4)cc3)nc2n1` [Example 74.0, 7-(4-{3-[5-(6-methylpyridine-2-yl)-1H-[1,2,4]triazole-3-yl]-azetidine-1-ylmethyl}-phenyl)-6-phenyl-imidazo[1,2-a]pyrimidine-2-carboxylic acid methyl ester], the values for the pIC50 in experiment [1] and in experiment [2] were 7.85 and 7.92, respectively.
With `Cc1cn2c(NC(C)C)c(-c3ccccc3)c(-c3ccc(CN4CC(c5n[nH]c(-c6ccccn6)n5)C4)cc3)nc2n1` [Example 64.0, isopropyl-(2-methyl-6-phenyl-7-{4-{3-[5-(pyridine-2-yl)-1H-[1,2,4]triazole-3-yl)-azetidine-1-ylmethyl]-phenyl}-imidazo[1,2-a]pyrimidin-5-yl)-amine], the values for the pIC50 in experiment [1] and in experiment [2] were 7.41 and 7.52, respectively.
In the same order, the values of `c1ccc(-c2cn3ccnc3nc2-c2ccc(CN3CCC(c4cnc5ccccc5n4)CC3)cc2)cc1` [Example 36.0, 2-{1-[4-(6-phenyl-imidazo[1,2-a]pyrimidin-7-yl)-benzyl]-piperidine-4-yl}-quinoxaline] are 6.23 and 7.15.
In the case of `CSc1nc2nc(-c3ccc(CN4CC(c5n[nH]c(-c6cccc(C)n6)n5)C4)cc3)c(-c3ccccc3)cn2n1` [Example 71.0, 5-(4-{3-[5-(6-methyl-pyridin-2-yl)-1H-[1,2,4]triazol-3-yl]-azetidin-1-ylmethyl}-phenyl)-2-methylsulfanyl-6-phenyl-[1,2,4]triazolo[1,5-a]pyrimidine], the figures for the pIC50 in experiment [1] and in experiment [2] were 8.40 and 8.30, respectively.
In the same order, the values of `CSc1nc2nc(-c3ccc(CN4CCC(c5n[nH]c(-c6ncccn6)n5)CC4)cc3)c(-c3ccccc3)cn2n1` [Example 72.2, 2-methylsulfanyl-6-phenyl-5-{4-[4-(5-pyrimidin-2-yl-1H-[1,2,4]triazol-3-yl)-piperidin-1-ylmethyl]-phenyl}-[1,2,4]triazolo[1,5-a]pyrimidine] are 6.65 and 7.11.
In the same order, the values of `Cc1cccc(-c2nc(C3CCN(Cc4ccc(-c5nc6ncc(Br)n6cc5-c5ccc(F)cc5)cc4)CC3)n[nH]2)n1` [Example 53.0, 3-bromo-6-(4-fluorophenyl)-7-(4-{4-[5-(6-methylpyridine-2-yl)-1H-[1,2,4]triazole-3-yl]-piperidine-1-ylmethyl}-phenyl)-imidazo[1,2-a]pyrimidine] are 8.15 and 7.96.
`Clc1cnc2nc(-c3ccc(CN4CC(c5nnc(-c6ccccn6)[nH]5)C4)cc3)c(-c3ccccc3)cn12` [Example 5.0, 3-Chloro-6-phenyl-7-(4-{[3-(5-pyridin-2-yl-1,2,4-triazol-3-yl)azetidin-1-yl]methyl}phenyl)imidazo[1,2-a]pyrimidine]: the pIC50 in experiment [1] is 7.96; in experiment [2], 8.22.
With `COC(=O)c1cnn2cc(-c3c(F)cccc3F)c(-c3ccc(CN4CC(c5n[nH]c(-c6cccc(C)n6)n5)C4)cc3)nc12` [Example 27.0, 6-(2,6-difluorophenyl)-5-(4-{3-[5-(6-methylpyridine-2-yl)-1H-[1,2,4]triazole-3-yl]-azetidine-1-ylmethyl}-phenyl)-pyrazolo[1,5-a]pyrimidine-3-carboxylic acid methyl ester], the pIC50 in experiment [1] is 6.94; in experiment [2], 7.92.
`Brc1cnc2nc(-c3ccc(CN4CC(c5n[nH]c(-c6ccccn6)n5)C4)cc3)c(-c3ccccc3)cn12` [Example 55.0, 3-bromo-6-phenyl-7-{4-{3-[5-(pyridine-2-yl)-1H-[1,2,4]triazole-3-yl)-azetidine-1-ylmethyl]-phenyl}-imidazo[1,2-a]pyrimidine]: the pIC50 was 7.85 in experiment [1] and 8.22 in experiment [2].

For the origin of these results see patent publication US8957064B2, “Fused pyrimidines” (Bayer Intellectual Property GmbH, priority 2009, dated 2015).
